Reference: patent US7745475B2, “Heteroaryl benzamide derivatives as GLK activators” (AstraZeneca AB, priority 2004, dated 2010)

How the values were obtained:
Zucker obese fa/fa rats = test: Oral Glucose Tolerance Test (OGTT); format: in vivo, rat
Experimental: (2) Oral Glucose Tolerance Test (OGTT)
Oral glucose tolerance tests were done on conscious Zucker obese fa/fa rats (age 12-13 weeks or older) fed a high fat diet (45% kcal fat) for at least two weeks prior to experimentation. The animals were fasted for 2 hours before use for experiments. A test compound or a vehicle was given orally 120 minutes before oral administration of a glucose solution at a dose of 2 g/kg body weight. Blood glucose levels were measured using a Accucheck glucometer from tail bled samples taken at different time points before and after administration of glucose (time course of […]). A time curve of the blood glucose levels was generated and the area-under-the-curve (AUC) for 120 minutes was calculated (the time of glucose administration being time zero). Percent reduction in glucose excursion was determined using the AUC in the vehicle-control group as zero percent reduction.

Oral exposure = format: in vivo; conditions: compared with Example II107 in WO 03/015774
[1] = biological target: T1, recombinant human pancreatic GLK (Homo sapiens, UniProt P35557); test: biochemical
T1 sequence (P35557 1-465): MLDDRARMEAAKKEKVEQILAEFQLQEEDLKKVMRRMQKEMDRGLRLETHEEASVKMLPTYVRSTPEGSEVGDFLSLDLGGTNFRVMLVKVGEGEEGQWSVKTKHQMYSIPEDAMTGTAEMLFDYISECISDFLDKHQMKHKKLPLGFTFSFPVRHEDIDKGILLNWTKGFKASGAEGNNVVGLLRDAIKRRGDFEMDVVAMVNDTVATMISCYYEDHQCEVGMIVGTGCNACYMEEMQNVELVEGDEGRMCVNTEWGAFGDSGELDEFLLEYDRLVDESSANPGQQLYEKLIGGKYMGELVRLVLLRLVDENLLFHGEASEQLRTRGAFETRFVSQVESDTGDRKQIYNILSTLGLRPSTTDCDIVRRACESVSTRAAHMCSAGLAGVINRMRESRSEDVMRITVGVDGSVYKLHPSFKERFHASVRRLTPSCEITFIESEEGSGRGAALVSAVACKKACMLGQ

[2] = biological target: T1, recombinant human pancreatic GLK; test: Enzymatic activity of recombinant human pancreatic GLK (G-6-P dehydrogenase coupled, OD 340 nm); conditions: comparison in words

**Q.** Which melting point does the source give for CCn1ccc(NC(=O)c2cc(Oc3ccc(C(=O)N4CCC4)cc3F)cc(O[C@@H](C)CO)c2)n1 [Example 9, 3-{[4-(Azetidin-1-ylcarbonyl)-2-fluorophenyl]oxy}-N-(1-ethyl-1H-pyrazol-3-yl)-5-{[(1S)-2-hydroxy-1-methylethyl]oxy}benzamide] here?
**A.** The melting point was 124 °C.

**Q.** Which melting point does the source give for Cc1nsc(NC(=O)c2cc(Oc3ccc(C(=O)N4CCC4)cc3F)cc(O[C@@H](C)CO)c2)n1 [Example 27, 3-[4-(Azetidin-1-ylcarbonyl)-2-fluorophenoxy]-5-[(1S)-2-hydroxy-1-methylethoxy]-N-(3-methyl-1,2,4-thiadiazol-5-yl)benzamide] here?
**A.** The melting point was 173 to 175 °C.

**Q.** For Cc1cnc(NC(=O)c2cc(OCCc3ccsc3)cc(OC(C)C)c2)s1 [Example II107, reference compound], which OGTT activity (Zucker obese fa/fa rats; 10 mg/kg) is on record?
**A.** The OGTT activity was “not active”.

**Q.** Which melting point does the source give for C[C@@H](CO)Oc1cc(Oc2ccc(S(C)(=O)=O)cc2)cc(C(=O)Nc2ccn(C)n2)c1 [compound 3, 3-[(1S)-2-Hydroxy-1-methylethoxy]-N-(1-methyl-1H-pyrazol-3-yl)-5-[4-(methylsulfonyl)phenoxy]benzamide] here?
**A.** The melting point was 126 to 132 °C.

**Q.** Which “OGTT activity (percent reduction in glucose excursion, AUC vs vehicle)” value (Zucker obese fa/fa rats; 3 mg/kg, given orally) does the source give for Cc1nsc(NC(=O)c2cc(Oc3ccc(S(C)(=O)=O)cc3)cc(O[C@@H](C)CO)c2)n1 [Example 3a, 3-[(1S)-2-hydroxy-1-methylethoxy]-5-[4-(methylsulfonyl)phenoxy]-N-(3-methyl-1,2,4-thiadiazol-5-yl)benzamide] here?
**A.** Its value is 17%.

**Q.** And the oral exposure (Oral exposure)?
**A.** Its oral exposure is “superior oral exposure”.

**Q.** What about the EC50 [1] of the same compound?
**A.** The EC50 was 50 nM.

**Q.** And the “EC50 values, Example 3a compared with Example II107 in WO 03/015774” value [2]?
**A.** The value was “broadly similar”.

**Q.** For C[C@@H](CO)Oc1cc(Oc2ccc(C(=O)N3CCC3)cc2F)cc(C(=O)Nc2ccn(C)n2)c1 [Example 4, 3-[4-(Azetidin-1-ylcarbonyl)-2-fluorophenoxy]-5-[(1S)-2-hydroxy-1-methylethoxy]-N-(1-methyl-1H-pyrazol-3-yl)benzamide], which melting point is on record?
**A.** Its melting point is 142 °C.
